Laboratory results reported in ChEMBL document CHEMBL1201862, “PubChem BioAssay data set” (2004).
The source made the active and inactive calls.

Legend:
HEK293 [1] = assay: cytotoxicity in HEK293T NF-kB-Luc cells, SAR follow-up, cytotoxicity control for NF-kB activator project, cell-based, resazurin fluorescence (AID 493251); format: functional; conditions: Homo sapiens
Jurkat = assay: SAR Analysis of small molecule inhibitors of […] specific antigen receptor-induced NF-kB activation in a Jurkat cell line using a luminescence assay - Set 3. [Related pubchem assays (depositor defined):AID435022, AID435025, AID465]; format: functional, cell-based; conditions: Homo sapiens
HEK293 [2] = assay: SAR Analysis of small molecule inhibitors of B-cell specific antigen receptor-induced NF-kB activation in a HEK-293T cell line using a luminescence assay - Set 2. [Related pubchem assays (depositor defined):AID435022, AID435025, AID489021]; format: functional, cell-based; conditions: Homo sapiens
[3] = target: Disintegrin and metalloproteinase domain-containing protein 17 (Homo sapiens, UniProt P78536); assay: ADAM17 protease inhibitors, dose response, counter-screen for ADAM10 exosite inhibitor project, biochemical, quenched FRET substrate (AID 743253)
Sequence of Disintegrin and metalloproteinase domain-containing protein 17 (P78536 whole entry, the tested form may be a part): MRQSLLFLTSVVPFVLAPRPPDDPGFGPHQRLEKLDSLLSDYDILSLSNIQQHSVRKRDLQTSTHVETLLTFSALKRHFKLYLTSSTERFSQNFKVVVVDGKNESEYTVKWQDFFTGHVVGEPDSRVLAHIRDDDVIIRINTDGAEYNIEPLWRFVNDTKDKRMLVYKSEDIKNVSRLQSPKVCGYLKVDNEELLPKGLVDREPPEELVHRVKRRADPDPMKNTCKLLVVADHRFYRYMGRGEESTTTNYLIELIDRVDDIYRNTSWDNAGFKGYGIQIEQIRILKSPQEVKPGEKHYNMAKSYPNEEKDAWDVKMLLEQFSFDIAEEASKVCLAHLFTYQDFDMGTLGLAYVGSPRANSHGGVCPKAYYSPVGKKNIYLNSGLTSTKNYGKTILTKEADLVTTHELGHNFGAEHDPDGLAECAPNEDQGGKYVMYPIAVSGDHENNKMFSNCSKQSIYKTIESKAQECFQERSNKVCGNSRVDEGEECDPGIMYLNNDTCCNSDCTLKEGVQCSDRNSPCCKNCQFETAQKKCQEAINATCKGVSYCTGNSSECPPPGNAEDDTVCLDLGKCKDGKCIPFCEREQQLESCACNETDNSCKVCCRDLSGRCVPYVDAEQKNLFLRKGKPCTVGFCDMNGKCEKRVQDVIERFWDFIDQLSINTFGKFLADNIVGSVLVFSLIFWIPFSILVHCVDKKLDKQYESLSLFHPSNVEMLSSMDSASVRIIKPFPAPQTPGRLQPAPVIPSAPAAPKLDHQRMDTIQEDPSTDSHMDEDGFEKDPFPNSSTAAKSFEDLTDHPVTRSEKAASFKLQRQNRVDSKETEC

DNA topoisomerase = DNA topoisomerase (Yersinia pestis, UniProt A0A2S9PM60); assay: Y. pestis Topo-I inhibitors, cleavage product readout, dose response, biochemical, cherry-pick (AID 588525)
Sequence of DNA topoisomerase (A0A2S9PM60 whole entry): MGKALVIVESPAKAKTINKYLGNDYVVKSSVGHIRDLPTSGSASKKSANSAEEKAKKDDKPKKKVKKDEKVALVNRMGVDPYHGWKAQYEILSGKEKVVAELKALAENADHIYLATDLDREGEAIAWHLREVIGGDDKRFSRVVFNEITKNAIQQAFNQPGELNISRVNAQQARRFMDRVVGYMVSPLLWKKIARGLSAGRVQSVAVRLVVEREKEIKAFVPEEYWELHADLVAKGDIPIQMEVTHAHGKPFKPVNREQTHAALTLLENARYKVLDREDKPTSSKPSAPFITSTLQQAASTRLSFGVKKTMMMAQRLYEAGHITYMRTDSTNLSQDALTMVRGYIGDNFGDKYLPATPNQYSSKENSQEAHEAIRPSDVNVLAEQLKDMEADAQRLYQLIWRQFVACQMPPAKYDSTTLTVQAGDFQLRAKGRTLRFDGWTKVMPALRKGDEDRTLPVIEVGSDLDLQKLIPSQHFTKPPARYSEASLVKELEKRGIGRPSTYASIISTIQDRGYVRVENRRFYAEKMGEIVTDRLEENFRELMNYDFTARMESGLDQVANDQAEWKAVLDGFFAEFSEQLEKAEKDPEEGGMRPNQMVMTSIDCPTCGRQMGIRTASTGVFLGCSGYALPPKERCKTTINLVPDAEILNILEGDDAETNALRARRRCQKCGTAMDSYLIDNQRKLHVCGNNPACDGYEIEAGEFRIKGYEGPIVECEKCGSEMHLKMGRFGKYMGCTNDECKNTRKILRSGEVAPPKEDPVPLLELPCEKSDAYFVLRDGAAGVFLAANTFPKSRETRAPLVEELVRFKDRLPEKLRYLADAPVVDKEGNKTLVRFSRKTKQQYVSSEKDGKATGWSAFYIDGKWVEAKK

[4] = ADAM10 inhibitors, peptide cleavage, dose response, biochemical, QFRET (AID 743254);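 further: ADAM10 enzyme with the DM2 quenched FRET peptide as substrate; EDANS fluorescence gain as the protease cuts the substrate; inhibitor potency against ADAM10 proteolytic activity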
[5] = target: T1, Sentrin-specific protease 6 (Homo sapiens, UniProt Q9GZR1); assay: SENP6 protease inhibitors, SAR follow-up, biochemical, luminescence, set 2 (AID 588598); format: functional
T1 sequence (Q9GZR1 whole entry): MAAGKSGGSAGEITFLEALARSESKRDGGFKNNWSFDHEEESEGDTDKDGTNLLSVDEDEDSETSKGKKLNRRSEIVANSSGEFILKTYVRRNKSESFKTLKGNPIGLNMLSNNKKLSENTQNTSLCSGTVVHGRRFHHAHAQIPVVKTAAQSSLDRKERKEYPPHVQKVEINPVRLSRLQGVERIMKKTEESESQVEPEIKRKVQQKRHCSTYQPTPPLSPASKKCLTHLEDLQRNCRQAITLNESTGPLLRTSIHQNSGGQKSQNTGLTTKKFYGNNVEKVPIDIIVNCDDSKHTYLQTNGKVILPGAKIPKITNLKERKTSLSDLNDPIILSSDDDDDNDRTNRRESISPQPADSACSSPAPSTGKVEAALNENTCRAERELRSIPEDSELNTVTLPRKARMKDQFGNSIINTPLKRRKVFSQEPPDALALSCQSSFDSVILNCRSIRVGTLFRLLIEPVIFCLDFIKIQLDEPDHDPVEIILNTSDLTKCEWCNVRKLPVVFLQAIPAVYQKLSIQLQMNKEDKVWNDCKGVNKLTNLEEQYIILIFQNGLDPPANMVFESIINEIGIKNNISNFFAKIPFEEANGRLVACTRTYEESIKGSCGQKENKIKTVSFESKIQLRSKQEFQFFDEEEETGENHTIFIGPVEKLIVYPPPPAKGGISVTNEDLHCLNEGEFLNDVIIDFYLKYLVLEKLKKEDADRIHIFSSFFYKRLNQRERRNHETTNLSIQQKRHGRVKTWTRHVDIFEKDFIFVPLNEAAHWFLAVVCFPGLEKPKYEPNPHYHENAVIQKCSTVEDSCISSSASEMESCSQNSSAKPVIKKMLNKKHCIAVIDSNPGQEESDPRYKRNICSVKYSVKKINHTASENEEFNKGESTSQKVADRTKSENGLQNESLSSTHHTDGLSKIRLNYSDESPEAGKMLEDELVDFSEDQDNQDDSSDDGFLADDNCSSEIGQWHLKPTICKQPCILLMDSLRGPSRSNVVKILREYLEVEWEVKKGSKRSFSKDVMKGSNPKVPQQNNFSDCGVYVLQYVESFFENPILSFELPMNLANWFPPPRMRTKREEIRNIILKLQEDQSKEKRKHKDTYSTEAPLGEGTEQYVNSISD

[6] = target: T2, Sentrin-specific protease 7 (Homo sapiens, UniProt Q9BQF6); assay: SENP7 protease inhibitors, SAR follow-up, biochemical, luminescence (AID 504497); format: functional
T2 sequence (Q9BQF6 whole entry): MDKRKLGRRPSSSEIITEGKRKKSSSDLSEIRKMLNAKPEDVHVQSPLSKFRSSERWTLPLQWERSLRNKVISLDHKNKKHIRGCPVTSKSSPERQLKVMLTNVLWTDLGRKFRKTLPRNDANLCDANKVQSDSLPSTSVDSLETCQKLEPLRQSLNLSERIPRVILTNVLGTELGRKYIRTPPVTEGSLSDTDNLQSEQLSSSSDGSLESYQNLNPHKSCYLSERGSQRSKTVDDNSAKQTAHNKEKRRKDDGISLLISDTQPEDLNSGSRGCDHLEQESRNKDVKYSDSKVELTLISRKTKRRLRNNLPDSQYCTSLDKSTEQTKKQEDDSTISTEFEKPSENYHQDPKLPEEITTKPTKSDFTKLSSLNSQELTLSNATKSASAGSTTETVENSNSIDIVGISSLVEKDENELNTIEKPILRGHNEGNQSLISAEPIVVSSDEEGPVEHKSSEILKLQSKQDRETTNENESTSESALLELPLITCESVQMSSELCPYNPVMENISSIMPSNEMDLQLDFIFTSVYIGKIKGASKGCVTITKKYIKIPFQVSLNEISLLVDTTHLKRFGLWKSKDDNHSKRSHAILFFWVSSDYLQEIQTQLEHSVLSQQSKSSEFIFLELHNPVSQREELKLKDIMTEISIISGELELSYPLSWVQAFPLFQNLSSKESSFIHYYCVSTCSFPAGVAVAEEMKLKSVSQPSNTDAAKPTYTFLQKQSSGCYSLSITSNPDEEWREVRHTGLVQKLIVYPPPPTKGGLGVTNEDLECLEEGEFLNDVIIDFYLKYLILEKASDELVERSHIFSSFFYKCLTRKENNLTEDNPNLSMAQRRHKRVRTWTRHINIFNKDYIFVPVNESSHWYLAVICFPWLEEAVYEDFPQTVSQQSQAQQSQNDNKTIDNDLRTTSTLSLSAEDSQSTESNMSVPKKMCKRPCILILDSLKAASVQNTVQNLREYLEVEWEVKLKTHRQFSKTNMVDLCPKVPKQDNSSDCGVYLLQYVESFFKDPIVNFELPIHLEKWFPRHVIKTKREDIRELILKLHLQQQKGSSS

[7] = target: T3, Sentrin-specific protease 8 (Homo sapiens, UniProt Q96LD8); assay: SENP8 protease inhibitors, SAR follow-up, biochemical, luminescence, set 2 (AID 588601); format: functional
T3 sequence (Q96LD8 whole entry): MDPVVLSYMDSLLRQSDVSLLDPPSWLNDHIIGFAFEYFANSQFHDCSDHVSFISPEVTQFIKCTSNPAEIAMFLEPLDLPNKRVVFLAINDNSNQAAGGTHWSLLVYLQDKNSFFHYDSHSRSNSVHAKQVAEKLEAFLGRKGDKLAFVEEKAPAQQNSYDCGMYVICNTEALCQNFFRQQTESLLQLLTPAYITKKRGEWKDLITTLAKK

[8] = target: T1, Sentrin-specific protease 6; assay: SAR Analysis of small molecule inhibitors of Sentrin-specific protease 6 (SENP6) using a Luminescent assay. [Related pubchem assays (depositor defined):AID2582, AID2599]; format: functional
Caspase-3 [9] = target: T4, Caspase-3 (Homo sapiens, UniProt P42574); assay: caspase-3 inhibitors as off-family protease, SAR follow-up, selectivity assay for SENP protease inhibitor project, biochemical, luminescence, set 2 (AID 588599); format: functional
T4 sequence (P42574 whole entry): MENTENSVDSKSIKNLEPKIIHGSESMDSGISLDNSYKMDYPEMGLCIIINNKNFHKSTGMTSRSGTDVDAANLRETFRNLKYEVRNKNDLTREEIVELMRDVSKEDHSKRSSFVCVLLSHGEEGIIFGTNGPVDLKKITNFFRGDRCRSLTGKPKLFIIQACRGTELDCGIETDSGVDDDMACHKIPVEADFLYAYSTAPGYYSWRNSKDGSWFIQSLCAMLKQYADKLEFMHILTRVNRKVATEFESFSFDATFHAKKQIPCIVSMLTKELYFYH

[10] = target: T3, Sentrin-specific protease 8; assay: SENP8 protease inhibitors, SAR follow-up, biochemical, luminescence (AID 504501); format: functional
[11] = target: T2, Sentrin-specific protease 7; assay: SENP7 protease inhibitors, SAR follow-up, biochemical, luminescence, set 2 (AID 588600); format: functional
Caspase-3 [12] = target: T4, Caspase-3; assay: SAR Analysis of small molecule inhibitors of Sentrin-specific proteases (SENPs) using a Caspase-3 Selectivity assay. [Related pubchem assays (depositor defined):AID2540, AID2599, AID434973, AID489001]; format: functional
Hexokinase HKDC1 = target: T5, Hexokinase HKDC1 (Homo sapiens, UniProt Q2TB90); assay: SAR analysis of small molecule inhibitors of hexokinase domain containing I (HKDC1). [Related pubchem assays (depositor defined):AID493160, AID493190]; format: functional
T5 sequence (Q2TB90 whole entry): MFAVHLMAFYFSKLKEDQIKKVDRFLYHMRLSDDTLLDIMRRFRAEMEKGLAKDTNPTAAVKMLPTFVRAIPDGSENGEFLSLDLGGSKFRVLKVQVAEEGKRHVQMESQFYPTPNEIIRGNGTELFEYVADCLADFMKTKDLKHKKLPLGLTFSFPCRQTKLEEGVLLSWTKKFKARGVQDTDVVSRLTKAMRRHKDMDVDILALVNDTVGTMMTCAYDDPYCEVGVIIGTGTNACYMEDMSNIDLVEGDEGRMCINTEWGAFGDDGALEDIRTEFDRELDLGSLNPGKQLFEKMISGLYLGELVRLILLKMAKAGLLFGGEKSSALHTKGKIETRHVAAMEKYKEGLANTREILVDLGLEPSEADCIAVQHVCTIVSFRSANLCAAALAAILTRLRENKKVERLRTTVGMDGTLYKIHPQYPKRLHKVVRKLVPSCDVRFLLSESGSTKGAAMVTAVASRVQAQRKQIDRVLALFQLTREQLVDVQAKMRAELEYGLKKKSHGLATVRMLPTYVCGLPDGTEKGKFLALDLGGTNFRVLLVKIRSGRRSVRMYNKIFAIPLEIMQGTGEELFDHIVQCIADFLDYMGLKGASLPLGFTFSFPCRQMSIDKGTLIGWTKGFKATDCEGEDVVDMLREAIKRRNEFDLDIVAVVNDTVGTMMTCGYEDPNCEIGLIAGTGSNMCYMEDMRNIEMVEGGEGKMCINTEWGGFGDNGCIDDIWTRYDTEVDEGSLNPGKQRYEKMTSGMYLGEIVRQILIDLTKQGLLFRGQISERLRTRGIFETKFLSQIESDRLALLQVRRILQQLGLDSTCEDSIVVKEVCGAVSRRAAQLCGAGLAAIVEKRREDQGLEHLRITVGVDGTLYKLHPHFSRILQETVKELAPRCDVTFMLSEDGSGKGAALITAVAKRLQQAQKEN

Hexokinase-1 = target: T6, Hexokinase-1 (Homo sapiens, UniProt P19367); assay: SAR analysis of small molecule inhibitors of hexokinase domain containing I (HKDC1) in the hexokinase 1 selectivity assay. [Related pubchem assays (depositor defined):AID493160, AID493190]; format: functional
T6 sequence (P19367 whole entry): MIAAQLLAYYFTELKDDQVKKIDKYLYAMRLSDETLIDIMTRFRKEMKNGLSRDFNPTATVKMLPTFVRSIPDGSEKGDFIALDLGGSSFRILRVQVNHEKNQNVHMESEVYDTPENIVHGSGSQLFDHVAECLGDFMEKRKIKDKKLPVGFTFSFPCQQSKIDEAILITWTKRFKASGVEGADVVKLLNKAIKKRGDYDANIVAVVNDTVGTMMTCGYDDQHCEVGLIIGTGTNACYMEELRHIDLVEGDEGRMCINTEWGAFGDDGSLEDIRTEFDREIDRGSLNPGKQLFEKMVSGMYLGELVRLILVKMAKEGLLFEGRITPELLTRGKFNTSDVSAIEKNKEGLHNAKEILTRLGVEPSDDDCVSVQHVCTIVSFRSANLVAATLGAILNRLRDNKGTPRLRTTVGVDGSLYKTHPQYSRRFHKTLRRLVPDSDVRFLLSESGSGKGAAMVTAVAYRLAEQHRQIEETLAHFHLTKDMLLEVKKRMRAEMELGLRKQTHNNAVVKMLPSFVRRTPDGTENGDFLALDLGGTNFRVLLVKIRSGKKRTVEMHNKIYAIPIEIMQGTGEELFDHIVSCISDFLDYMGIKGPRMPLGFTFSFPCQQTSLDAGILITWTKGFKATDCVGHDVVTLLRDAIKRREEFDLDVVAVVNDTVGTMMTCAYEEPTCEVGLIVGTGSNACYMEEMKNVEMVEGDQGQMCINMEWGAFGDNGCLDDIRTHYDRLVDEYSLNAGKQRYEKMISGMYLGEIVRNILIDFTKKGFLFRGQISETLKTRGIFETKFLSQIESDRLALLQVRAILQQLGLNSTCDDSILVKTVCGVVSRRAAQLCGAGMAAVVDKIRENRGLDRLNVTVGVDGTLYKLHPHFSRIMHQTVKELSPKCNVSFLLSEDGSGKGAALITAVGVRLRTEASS

## COc1cccc(NC(=O)CCc2nc(-c3ccc(C(C)(C)C)cc3)no2)c1
HEK293 [1]
  IC50: > 80 µM (inactive)
Jurkat
  IC50: 0.242 µM (active)
HEK293 [2]
  IC50: 0.24 µM (active)

## Cc1cc(C)c2c(=O)n3c(nc2c1)C(Cc1ccc(O)cc1)NC(=O)c1cc2ccccc2cc1-3 (stereo unspecified)
[3]
  IC50: > 69.5 µM (inactive)
DNA topoisomerase
  AC50: 9.07 µM (active)
[4]
  IC50: > 69.5 µM (inactive)

## CCCCc1ccc2nc(NC(=O)c3nccs3)sc2c1
[5]
  IC50: 7.43 µM (active)
[6]
  IC50: 3.3 µM (active)
[7]
  IC50: 4.9 µM (active)
[8]
  IC50: 4.4 µM (active)
Caspase-3 [9]
  IC50: 4.83 µM (active)
[10]
  IC50: 5.4 µM (active)
[11]
  IC50: 6.32 µM (active)
Caspase-3 [12]
  IC50: 5.4 µM (active)

## O=c1c2ccccc2nc(/C=C/c2ccccn2)n1-c1ccccc1
Hexokinase HKDC1
  IC50: > 80 µM (inactive)
Hexokinase-1
  IC50: > 80 µM (inactive)
